Results: US6552038B1, “Anticoagulant agents” (Eli Lilly and Company, priority 1996, dated 2003)
Where a name gives a salt, the structure may show the parent alone.

Key:
human or animal plasma = assay: Anticoagulation determination: thrombin time (TT) in plasma; conditions: compound added to plasma; linear extrapolation to doubling of thrombin time
Description: Dog plasma and rat plasma are obtained from conscious mixed-breed hounds (either sex, hazelton-LRE, Kalamazoo, Mich., U.S.A.) or from anesthetized male Sprague-Dawley rats (Harlan Sprague-Dawley, Inc., Indianapolis, Ind., U.S.A.) by venipuncture into 3.8 percent citrate. Fibrinogen is prepared from in-date ACD human blood as the fraction I-2 according to previous procedures and specifications. Smith, Biochem. J., 185, 1-11 (1980); and Smith, et al., Biochemistry, 11, 2958-2967 (1972). Human fibrinogen is also purchased as 98 percent pure/plasmin free from American Diagnostica, Greenwich, Conn. Coagulation reagents ACTIN, Thromboplastin, and Human plasma are from Baxter Healthcare Corp., Dade Division, Miami, Fla. Bovine thrombin from Parke-Davis (Detroit, Mich.) is used for coagulation assays in plasma.
Coagulation assay procedures are as previously described. Smith, et al., Thrombosis Research, 50, 163-174 (1988). A CoAScreener coagulation instrument (American LABor, Inc.) is used for all coagulation assay measurements. The thrombin time (TT) is measured by adding 0.05 ml saline and 0.05 ml thrombin (10 NIH units/ml) to 0.05 ml test plasma. The activated partial thromboplastin time (APTT) is measured by incubation of 0.05 ml test plasma with 0.05 ml Actin reagent for 120 seconds followed by 0.05 ml CaCl2 (0.02 M). The prothrombin time (PT) is measured by adding 0.05 ml saline and 0.05 ml Thromboplastin-C reagent to 0.05 ml test plasma. The compounds of formula I are added to human or animal plasma over a wide range of concentrations to determine prolongation effects on the TT, APTT and PT assays. Linear extrapolations are performed to estimate the concentrations required to double the clotting time for each assay. Each of the particularly preferred examples of the invention listed above was determined to have a TT value of less than 50 ng/mL. For example, the respective values (in ng/mL) for TT were 6, 6 and 23 for the compounds of Examples 1, 3 and 5.

[1] = Octanol/water distribution coefficient logD at pH 7.4; type: physicochemical
human thrombin = human thrombin (Homo sapiens, UniProt P00734); assay: Inhibition of the amidase activity of thrombin (chromogenic substrate), Kass; type: biochemical; conditions: purified human thrombin, N-benzoyl-L-Phe-L-Val-L-Arg-p-nitroanilide, pH 7.4; mean value
Description: The assay is carried out by mixing 50 μl buffer (0.03M Tris, 0.15M NaCl, pH 7.4) with 25 μl of human thrombin solution (purified human thrombin, Enzyme Research Laboratories, South Bend, Ind., at 8 NIH units/ml) and 25 μl of test compound in a solvent (50% aqueous methanol (v:v)). Then 150 μl of an aqueous solution of the chromogenic substate (at 0.25 mg/ml) are added and the rates of hydrolysis of the substrate are measured by monitoring the reactions at 405 nm for the release of p-nitroaniline. Standard curves are constructed by plotting free thrombin concentration against hydrolysis rate. The hydrolysis rates observed with test compounds are then converted to “free thrombin” values in the respective assays by use of the standard curves. The bound thrombin (bound to test compound) is calculated by subtracting the amount of free thrombin observed in each assay from the known initial amount of thrombin used in the assay. The amount of free inhibitor in each assay is calculated by subtracting the number of moles of bound thrombin from the number of moles of added inhibitor (test compound). […]
Kass is calculated for a range of concentrations of test compounds and the mean value reported in units of liter per mole. […] For example, each of the particularly preferred examples of the invention listed above was determined to have a Kass of at least 100×10^6 L/mole.

Structure (SMILES) | TT value (concentration required to double the clotting time, thrombin time) (human or animal plasma) | logD(7.4) [1] | Kass (hypothetical equilibrium constant for the reaction between thrombin and the test compound) (human thrombin)
CCS(=O)(=O)N[C@H](CC1CCCCC1)C(=O)N1CCC[C@H]1C(=O)NCc1ccc(C(=N)N)c(O)c1 [Example 5, N-ethylsulfonyl-D-cyclohexylalanyl-N-[[4-(aminoiminomethyl)-3-hydroxyphenyl]methyl]-L-prolinamide hydrochloride] | 23 ng/mL | – | –
Cl.N=C(N)c1ccc(CNC(=O)[C@@H]2CCCN2C(=O)[C@@H](CC2CCCCC2)NCC(=O)O)cc1O [Example 3, N-carboxymethyl-D-cyclohexylalanyl-N-[[4-(aminoiminomethyl)-3-hydroxyphenyl]methyl]-L-prolinamide hydrochloride] | 6 ng/mL | 0.55 | 1,200×10^6 L/mole
N=C(N)c1ccc(CNC(=O)[C@@H]2CCCN2C(=O)[C@H](N)CC2CCCCC2)cc1O [Example 1, D-cyclohexylalanyl-N-[[4-(aminoiminomethyl)-3-hydroxyphenyl]methyl]-L-prolinamide dihydrochloride] | 6 ng/mL | – | –
